Assay results taken from ChEMBL document CHEMBL1201862, “PubChem BioAssay data set” (2004).
Active and inactive are the calls of the source.

Columns and labels:
[1] = biological target: T1, High affinity choline transporter 1 (Homo sapiens, UniProt Q9GZV3); assay: CHT inhibitors, dose response, cell-based, 5-point CRC, membrane potential dye (AID 504840); format: functional
T1 sequence (Q9GZV3 whole entry): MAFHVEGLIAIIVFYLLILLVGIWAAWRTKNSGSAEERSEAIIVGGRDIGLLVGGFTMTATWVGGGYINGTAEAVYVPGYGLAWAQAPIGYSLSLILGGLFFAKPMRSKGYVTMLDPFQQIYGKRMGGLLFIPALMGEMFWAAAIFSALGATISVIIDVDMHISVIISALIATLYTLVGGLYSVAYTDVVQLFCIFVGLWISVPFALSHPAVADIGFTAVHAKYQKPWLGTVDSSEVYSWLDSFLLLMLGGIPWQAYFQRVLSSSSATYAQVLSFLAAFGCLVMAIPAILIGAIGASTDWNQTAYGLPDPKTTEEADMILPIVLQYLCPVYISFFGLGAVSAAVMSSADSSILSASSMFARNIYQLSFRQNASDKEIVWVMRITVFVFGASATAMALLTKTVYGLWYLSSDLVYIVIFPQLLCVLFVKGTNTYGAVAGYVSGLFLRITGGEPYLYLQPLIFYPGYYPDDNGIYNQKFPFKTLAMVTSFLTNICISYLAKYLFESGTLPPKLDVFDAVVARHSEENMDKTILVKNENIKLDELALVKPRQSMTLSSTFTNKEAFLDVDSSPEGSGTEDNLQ

Large T antigen = Large T antigen (Simian virus 40, UniProt P03070); format: functional, Betapolyomavirus macacae;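 note: Confirmatory-stage PubChem screen for compounds that inhibit SV40 T antigen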
[2] = biological target: T1, High affinity choline transporter 1; assay: CHT inhibitors, dose response, cell-based, 10-point CRC, membrane potential dye (AID 588401); format: functional;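 note: membrane potential dye fluorescence of choline-evoked depolarization via CHT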
[3] = biological target: ATP-binding cassette sub-family B member 6 (Homo sapiens, UniProt Q9NP58); assay: ABCB6 transporter inhibitors, dose response, K562-ABCB6 cells, flow cytometry, cherry pick 1 (AID 623955); format: functional; details: read-out: EC50_MICROM
[4] = HepG2 cell cytotoxicity, dose response, cytotoxicity control for Shn3 inhibitor project, CellTiter-Glo, cherry-picked (AID 624134); format: functional, cell-based
Protein RecA = biological target: T2, Protein RecA (Mycobacterium tuberculosis, UniProt P9WHJ3); assay: Fluorescence Cell-Free Homogeneous Dose Retest to Identify Inhibitors of RecA-Intein Splicing Activity. [Related pubchem assays (depositor defined):AID2097, AID2223, AID489010, AID492950]; format: functional
T2 sequence (P9WHJ3 whole entry): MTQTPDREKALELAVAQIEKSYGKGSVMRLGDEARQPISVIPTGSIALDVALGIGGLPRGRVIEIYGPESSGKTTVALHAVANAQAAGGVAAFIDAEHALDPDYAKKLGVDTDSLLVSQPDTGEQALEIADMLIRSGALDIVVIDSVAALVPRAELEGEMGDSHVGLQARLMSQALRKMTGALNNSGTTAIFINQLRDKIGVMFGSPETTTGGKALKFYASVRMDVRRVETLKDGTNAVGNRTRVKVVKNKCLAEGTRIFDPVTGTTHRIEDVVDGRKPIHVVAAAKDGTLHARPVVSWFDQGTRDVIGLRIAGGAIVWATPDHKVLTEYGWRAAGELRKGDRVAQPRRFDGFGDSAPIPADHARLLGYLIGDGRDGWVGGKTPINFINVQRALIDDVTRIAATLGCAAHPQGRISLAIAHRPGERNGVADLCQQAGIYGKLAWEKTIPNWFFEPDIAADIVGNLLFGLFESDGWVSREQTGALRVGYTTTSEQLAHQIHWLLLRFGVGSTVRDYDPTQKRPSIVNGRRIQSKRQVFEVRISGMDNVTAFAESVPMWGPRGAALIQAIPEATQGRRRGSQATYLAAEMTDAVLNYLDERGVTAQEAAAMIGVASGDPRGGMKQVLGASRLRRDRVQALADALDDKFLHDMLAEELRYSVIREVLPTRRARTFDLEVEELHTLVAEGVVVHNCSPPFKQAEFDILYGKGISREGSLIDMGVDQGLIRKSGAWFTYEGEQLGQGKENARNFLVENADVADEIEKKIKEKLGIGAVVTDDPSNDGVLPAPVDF

[5] = control 3'UTR Renilla luciferase suppression, dose response, counter-screen for Shn3 inhibitor project, cell-based, Clone20-Shn3RL, cherry-picked (AID 624133); format: functional
[6] = Shn3 3'UTR reporter inhibitors, dose response, cell-based, Clone20 osteoblasts, firefly luciferase, cherry-picked (AID 624132); format: functional;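 note: firefly luciferase luminescence from reporter carrying the Shn3 3'UTR in osteoblasts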
[7] = biological target: T3, Replicative DNA helicase DnaB (Mycobacterium tuberculosis, UniProt P9WMR3); assay: DnaB intein splicing inhibitors, dose response, biochemical, cell-free fluorescence (AID 449749); format: functional
T3 sequence (P9WMR3 whole entry): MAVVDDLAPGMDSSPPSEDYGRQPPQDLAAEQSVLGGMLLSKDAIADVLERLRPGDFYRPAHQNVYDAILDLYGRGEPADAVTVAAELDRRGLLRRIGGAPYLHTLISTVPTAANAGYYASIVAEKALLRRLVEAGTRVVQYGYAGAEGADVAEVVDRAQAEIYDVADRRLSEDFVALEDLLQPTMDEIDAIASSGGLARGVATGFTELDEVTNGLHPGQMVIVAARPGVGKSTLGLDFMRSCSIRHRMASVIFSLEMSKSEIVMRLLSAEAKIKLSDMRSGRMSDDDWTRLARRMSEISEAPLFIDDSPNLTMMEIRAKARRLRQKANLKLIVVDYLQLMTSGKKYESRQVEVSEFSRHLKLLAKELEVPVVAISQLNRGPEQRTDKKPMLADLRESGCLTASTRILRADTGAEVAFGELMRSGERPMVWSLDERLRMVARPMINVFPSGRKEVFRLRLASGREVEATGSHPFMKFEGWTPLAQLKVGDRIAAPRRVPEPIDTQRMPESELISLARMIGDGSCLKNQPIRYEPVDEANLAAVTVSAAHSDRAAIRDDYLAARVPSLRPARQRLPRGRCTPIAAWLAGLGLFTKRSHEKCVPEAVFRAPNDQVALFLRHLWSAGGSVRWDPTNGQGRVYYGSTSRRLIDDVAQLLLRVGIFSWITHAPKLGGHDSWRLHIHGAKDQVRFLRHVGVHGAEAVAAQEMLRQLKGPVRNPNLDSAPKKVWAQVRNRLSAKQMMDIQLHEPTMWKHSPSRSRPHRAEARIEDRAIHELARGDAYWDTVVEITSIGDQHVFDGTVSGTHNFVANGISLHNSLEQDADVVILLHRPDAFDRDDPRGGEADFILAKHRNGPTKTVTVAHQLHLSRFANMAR

[8] = biological target: Heat shock protein HSP 90-alpha (Homo sapiens, UniProt P07900); format: functional, organism-based
INS1 = assay: beta cell apoptosis inhibitors, cytokine rescue, dose response, luminescence, retest (AID 449756); format: functional, cell-based; details: Rattus norvegicus;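 note: cell death triggered by IL-1 beta plus TNF-alpha plus IFN-gamma mixture; protective hits raise ATP signal compared with cytokine alone wells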
[9] = biological target: Potassium voltage-gated channel subfamily KQT member 2 (Rattus norvegicus, UniProt O88943); assay: KCNQ2 potassium channel inhibitors, dose response, cell-based, automated electrophysiology, set II, rat KCNQ2 (AID 588637); format: functional
[10] = biological target: Dual specificity tyrosine-phosphorylation-regulated kinase 1A (Rattus norvegicus, UniProt Q63470); format: biochemical, Homo sapiens
[11] = biological target: T4, Probable nicotinate-nucleotide adenylyltransferase (Staphylococcus aureus (strain N315), UniProt P65502); format: functional, Staphylococcus aureus subsp. aureus N315;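 for IC50 Mean: confirmatory dose-response retesting of NadD inhibitor hits first found in an ultra-high-throughput screen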
[12] = biological target: T4, Probable nicotinate-nucleotide adenylyltransferase; format: functional, Staphylococcus aureus subsp. aureus N315; details: read-out: IC50_Mean
[13] = biological target: T5, Small ubiquitin-related modifier 1 (Homo sapiens, UniProt P63165); assay: inhibitors of SUMO1 partner interactions, dose response, biochemical, FRET (AID 624383); format: functional; details: read-out: IC50_Mean
[14] = test system: Streptococcus sp. 'group A'; assay: growth inhibition of control SK(-) GAS strain, dose response, counter-screen for streptokinase expression inhibitor project, luminescence, kanamycin, BacTiterGlo, confirmation (AID 1900); format: functional, organism-based
[15] = biological target: DNA (cytosine-5)-methyltransferase 1 (Homo sapiens, UniProt P26358); assay: DNMT1 methyltransferase inhibitors, confirmation, biochemical, fluorescent molecular beacon (AID 602386); format: functional
Streptokinase A = biological target: T6, Streptokinase A (Streptococcus pyogenes serotype M1, UniProt P10520); assay: S. pyogenes streptokinase expression inhibitors, potency, dose response, plasminogen activation absorbance, OD405 (AID 1914); format: functional, Streptococcus pyogenes M1 GAS;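 note: secreted streptokinase activity via plasminogen activation per viability signal from cell pellet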
T6 sequence (P10520 whole entry): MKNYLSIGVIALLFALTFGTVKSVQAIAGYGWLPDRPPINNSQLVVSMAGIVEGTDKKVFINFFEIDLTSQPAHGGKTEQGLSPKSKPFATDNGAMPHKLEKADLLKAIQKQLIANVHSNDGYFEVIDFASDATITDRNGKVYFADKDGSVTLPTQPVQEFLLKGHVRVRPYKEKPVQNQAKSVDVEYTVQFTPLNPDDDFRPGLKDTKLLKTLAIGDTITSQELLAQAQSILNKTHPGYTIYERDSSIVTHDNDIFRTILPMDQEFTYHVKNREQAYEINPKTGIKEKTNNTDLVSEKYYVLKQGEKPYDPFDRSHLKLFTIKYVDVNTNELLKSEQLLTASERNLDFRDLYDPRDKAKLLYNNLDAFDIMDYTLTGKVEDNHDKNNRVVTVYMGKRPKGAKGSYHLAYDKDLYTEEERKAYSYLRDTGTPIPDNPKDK

[16] = biological target: T5, Small ubiquitin-related modifier 1; assay: inhibitors of SUMO1 peptide binding, dose response, biochemical, fluorescence polarization, uHTS hits (AID 624382); format: functional; details: read-out: IC50_Mean
Streptococcus = assay: Group A Streptococcus viability loss, dose response, counter-screen for streptokinase expression inhibitor project, luminescence, BacTiterGlo (AID 1915); format: functional, organism-based;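 note: potency for reduction of bacterial viability or growth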

T5 sequence (P63165 whole entry): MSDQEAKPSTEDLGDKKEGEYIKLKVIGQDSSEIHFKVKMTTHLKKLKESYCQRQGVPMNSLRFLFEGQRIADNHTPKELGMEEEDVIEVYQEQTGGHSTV
T4 sequence (P65502 whole entry): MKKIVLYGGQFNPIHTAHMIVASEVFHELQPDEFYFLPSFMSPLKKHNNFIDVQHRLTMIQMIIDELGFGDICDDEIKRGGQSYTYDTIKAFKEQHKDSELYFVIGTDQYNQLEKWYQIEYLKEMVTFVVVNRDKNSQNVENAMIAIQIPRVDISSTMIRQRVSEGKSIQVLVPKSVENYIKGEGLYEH
Large T antigen, sequence (P03070 whole entry): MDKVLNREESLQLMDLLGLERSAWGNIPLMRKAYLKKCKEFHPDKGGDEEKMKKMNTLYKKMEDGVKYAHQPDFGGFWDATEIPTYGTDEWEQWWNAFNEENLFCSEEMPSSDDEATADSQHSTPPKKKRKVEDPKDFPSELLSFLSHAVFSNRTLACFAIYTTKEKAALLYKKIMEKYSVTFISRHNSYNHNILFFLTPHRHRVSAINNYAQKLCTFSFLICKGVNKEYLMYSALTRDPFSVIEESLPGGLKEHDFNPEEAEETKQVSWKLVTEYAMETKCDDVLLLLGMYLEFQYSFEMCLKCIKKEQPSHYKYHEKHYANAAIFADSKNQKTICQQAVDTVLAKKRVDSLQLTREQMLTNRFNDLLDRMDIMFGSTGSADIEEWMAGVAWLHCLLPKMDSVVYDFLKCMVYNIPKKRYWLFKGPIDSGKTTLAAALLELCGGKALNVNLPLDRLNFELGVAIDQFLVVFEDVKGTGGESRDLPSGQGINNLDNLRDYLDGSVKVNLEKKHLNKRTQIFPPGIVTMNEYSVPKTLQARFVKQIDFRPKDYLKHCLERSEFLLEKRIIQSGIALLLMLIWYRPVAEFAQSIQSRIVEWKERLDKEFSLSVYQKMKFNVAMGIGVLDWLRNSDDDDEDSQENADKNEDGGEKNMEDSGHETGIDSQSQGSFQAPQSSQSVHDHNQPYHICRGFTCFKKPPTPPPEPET
ATP-binding cassette sub-family B member 6, sequence (Q9NP58 whole entry): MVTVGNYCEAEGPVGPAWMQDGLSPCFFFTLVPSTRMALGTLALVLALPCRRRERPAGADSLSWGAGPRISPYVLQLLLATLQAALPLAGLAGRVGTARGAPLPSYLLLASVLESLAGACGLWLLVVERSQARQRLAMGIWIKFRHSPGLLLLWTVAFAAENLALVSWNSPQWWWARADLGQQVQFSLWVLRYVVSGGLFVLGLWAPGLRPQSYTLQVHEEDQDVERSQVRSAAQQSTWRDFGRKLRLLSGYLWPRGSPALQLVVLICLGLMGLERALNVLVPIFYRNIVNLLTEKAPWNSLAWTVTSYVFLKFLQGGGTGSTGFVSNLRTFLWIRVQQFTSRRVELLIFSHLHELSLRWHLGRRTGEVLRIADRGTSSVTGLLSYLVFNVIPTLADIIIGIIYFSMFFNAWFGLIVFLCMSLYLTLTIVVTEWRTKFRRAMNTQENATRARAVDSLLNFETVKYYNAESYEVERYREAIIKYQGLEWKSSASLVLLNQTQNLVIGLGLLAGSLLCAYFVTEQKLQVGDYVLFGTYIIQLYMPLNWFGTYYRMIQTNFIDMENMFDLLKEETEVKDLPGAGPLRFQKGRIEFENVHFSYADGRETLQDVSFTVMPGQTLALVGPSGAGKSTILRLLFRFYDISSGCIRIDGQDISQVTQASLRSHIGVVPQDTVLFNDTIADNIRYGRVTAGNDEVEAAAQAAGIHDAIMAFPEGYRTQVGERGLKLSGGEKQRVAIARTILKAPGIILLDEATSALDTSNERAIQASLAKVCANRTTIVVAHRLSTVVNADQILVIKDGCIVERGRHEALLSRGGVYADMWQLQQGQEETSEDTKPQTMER
DNA (cytosine-5)-methyltransferase 1, sequence (P26358 whole entry): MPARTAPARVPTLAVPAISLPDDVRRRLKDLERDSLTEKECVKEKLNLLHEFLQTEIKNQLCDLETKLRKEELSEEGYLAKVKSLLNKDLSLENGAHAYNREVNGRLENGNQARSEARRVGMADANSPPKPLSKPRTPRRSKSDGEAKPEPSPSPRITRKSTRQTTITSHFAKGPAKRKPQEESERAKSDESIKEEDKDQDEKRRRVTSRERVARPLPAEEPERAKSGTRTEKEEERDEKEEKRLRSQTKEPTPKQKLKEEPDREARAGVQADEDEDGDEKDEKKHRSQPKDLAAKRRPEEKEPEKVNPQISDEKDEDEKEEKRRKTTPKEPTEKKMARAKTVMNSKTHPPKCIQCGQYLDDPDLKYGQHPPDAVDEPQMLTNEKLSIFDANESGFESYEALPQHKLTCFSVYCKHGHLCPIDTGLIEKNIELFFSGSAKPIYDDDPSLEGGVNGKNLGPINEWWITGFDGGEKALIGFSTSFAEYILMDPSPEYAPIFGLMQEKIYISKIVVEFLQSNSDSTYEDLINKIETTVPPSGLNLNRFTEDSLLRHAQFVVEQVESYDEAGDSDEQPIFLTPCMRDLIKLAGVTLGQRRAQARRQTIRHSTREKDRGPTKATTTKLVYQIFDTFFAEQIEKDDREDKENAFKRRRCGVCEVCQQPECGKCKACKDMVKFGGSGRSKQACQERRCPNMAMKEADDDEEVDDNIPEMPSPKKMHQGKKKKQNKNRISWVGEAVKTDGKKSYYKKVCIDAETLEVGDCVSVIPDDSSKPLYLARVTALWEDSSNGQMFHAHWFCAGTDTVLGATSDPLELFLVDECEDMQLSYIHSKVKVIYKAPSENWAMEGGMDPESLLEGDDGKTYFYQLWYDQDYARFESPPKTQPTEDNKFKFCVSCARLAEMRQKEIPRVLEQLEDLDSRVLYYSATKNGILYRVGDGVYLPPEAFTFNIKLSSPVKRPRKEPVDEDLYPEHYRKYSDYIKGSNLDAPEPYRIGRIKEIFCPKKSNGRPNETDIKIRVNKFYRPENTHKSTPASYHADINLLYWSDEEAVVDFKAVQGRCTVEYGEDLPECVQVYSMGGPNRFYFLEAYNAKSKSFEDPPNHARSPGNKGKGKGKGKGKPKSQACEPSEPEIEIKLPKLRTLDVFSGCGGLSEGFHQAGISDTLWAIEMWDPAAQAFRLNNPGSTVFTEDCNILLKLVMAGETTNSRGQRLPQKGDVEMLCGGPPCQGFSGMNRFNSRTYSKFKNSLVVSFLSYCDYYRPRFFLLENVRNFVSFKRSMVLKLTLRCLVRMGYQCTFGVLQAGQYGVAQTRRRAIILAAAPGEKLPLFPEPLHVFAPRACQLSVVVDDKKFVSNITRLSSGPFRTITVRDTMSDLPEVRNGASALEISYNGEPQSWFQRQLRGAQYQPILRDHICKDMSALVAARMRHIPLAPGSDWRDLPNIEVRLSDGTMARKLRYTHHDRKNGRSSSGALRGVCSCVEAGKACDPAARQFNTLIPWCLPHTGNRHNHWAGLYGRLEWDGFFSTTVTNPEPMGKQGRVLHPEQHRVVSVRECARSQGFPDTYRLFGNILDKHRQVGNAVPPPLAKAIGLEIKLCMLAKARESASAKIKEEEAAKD
Potassium voltage-gated channel subfamily KQT member 2, sequence (O88943 whole entry): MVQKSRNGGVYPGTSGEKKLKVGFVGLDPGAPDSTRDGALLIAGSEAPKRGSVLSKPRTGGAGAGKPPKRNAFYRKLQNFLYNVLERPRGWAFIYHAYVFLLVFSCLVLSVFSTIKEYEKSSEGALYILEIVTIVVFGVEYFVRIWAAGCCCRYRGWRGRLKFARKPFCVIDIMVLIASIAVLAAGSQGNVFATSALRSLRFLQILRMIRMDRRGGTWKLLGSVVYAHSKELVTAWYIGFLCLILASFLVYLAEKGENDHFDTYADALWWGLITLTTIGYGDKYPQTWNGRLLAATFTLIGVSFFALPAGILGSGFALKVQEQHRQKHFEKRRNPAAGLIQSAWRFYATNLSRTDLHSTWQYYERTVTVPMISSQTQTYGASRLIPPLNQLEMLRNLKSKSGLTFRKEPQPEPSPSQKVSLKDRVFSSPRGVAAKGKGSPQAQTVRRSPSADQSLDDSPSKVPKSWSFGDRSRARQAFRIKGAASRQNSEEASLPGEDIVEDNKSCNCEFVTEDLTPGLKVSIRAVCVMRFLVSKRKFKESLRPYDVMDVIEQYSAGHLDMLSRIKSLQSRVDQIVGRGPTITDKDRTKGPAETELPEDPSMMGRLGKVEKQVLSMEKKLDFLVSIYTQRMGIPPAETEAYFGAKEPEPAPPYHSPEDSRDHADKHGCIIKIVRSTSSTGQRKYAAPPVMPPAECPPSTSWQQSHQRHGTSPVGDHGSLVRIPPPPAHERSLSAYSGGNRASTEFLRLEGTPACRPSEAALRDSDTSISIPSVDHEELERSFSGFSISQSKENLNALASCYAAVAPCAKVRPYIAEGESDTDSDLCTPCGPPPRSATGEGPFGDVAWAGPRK

CCOC(=O)c1c(N)ssc1=S
IC50 [1]: 8.48 µM (active)
IC50 (Large T antigen): 95.5 µM (active)
IC50 [2]: 3.81 µM (active)

Cc1cccc(NC(=O)c2nc(S(=O)(=O)Cc3ccccc3)ncc2Cl)c1
EC50 [3]: 21.5 µM (active)
AC50 [4]: 17.5 µM (active)
EC50 (Protein RecA): 10.6 µM (active)
AC50 [5]: 6.26 µM (active)
AC50 [6]: 2.66 µM (active)
AC50 [7]: 21.9 µM (active)
AC50 [8]: 2.42 µM (active)
AC50 (INS1): 10.3 µM (active)

CN1/C(=C\C(=S)NC(=O)c2cccc(Br)c2)C(C)(C)c2ccccc21
IC50 [9]: 4.27 µM (active)
AC50 (INS1): 3.96 µM (active)

O=S(=O)(Nc1c(S(=O)(=O)c2ccccc2)c2nc3ccccc3nc2n1C1CCCCC1)c1ccccc1
AC50 [10]: 26.7 µM (active)
IC50 [11]: 5.42 µM (active)
IC50 [12]: 21.7 µM (active)
IC50 [13]: 9.65 µM (active)
EC50 [14]: 5.18 µM (active)
IC50 [15]: 5.23 µM (active)
EC50 (Streptokinase A): 5.18 µM (active)
IC50 [16]: > 66.6 µM (inactive)
EC50 (Streptococcus): 12 µM (active)
